{"source": "patent US20150328109A1", "about": "“DERMAL COMPOSITIONS CONTAINING UNNATURAL HYGROSCOPIC AMINO ACIDS” (MEDPHARM LIMITED, priority 2012, published 2015)", "key": {"[1]": {"assay": "Deliquescence relative humidity (DRH) of a saturated solution in a sealed vessel at 32° C.", "assay_type": "physicochemical", "conditions": "saturated solution in water (1 mL), 24 hours, mass used printed beside the name", "procedure": "This experiment was to measure the deliquescence relative humidity (DRH) caused by a saturated amino acid solution in a sealed vessel at 32° C.; the lower the DRH, the greater the water holding capacity of the solution measured. Deliquescence relative humidity is the relative humidity at which the compound deliquesces, i.e. the relative humidity in which the compound absorbs so much water that it dissolves within the absorbed water.\nThe apparatus is maintained at 32° C. The temperature of 32° C. was chosen for being the temperature of outer stratum corneum. As the amino acids are to eventually be delivered to the outer layer of the skin, then the water holding capacity of these compounds at 32° C. is important.\nThe saturated solution is prepared as above by adding the amino acid to water (1 mL, 32° C.), whilst swirling. The total amino acid is weighed before adding to the water and the remaining amino acid so that the mass of compound used can be determined. The saturated solution (1 mL, 32° C.) is then transferred into the vial, again because of partial molar volume causing a change in volume by the addition of the amino acid to the water.\nThe temperature and % RH (% Relative Humidity) shown on the thermo-hygrometer are recorded every 30 minutes until the % RH remains constant. The temperature confirms that the temperature experienced by the sample is 32° C."}, "[2]": {"system": "GM-CSF", "assay": "GM-CSF release from in vitro psoriatic tissue model (ELISA)", "assay_type": "cell-based, human", "conditions": "over 6 days; 10% w/v N-H-S, 1% w/v N-H-G, 10% w/v L-h-S, 10% w/v combination 1:1:1 in water", "text": "(§1) A human cell based in vitro psoriatic tissue model consisting of psoriatic fibroblasts and normal keratinocytes was used in this study. […] GM-CSF is a key activator of the innate immune system involved in chronic inflammatory and autoimmune diseases including psoriasis (Löntz et al 1995), where macrophages, granulocytes, neutrophils, eosinophils and dendritic cells can contribute to tissue damage and disease progression (Krinner 2007). GM-CSF stimulates stem cells to produce granulocytes and other macrophages and subsequently activates these differentiated immune cells. GM-CSF has also been identified as an inflammatory mediator in autoimmune disorders with elevated levels of GM-CSF mRNA or protein being measured in a variety of inflammatory sites including in allergic and psoriatic patients, arthritic and asthmatic patients (Plater-Zyberk et al 2008). Numerous in vivo studies over the past few years have shown that blockade of GM-CSF via neutralising antibodies can prevent or even cure pro-inflammatory diseases in various models of inflammation including arthritis experimental autoimmune encephalitis, psoriasis (Schon et al 2000), and lung disease (Plater-Zyberk et al 2008). […] Due to the importance of GM-CSF in psoriasis it was selected for analysis in this study.\nIn this investigation two types of RHE tissues were used, which were healthy and psoriatic tissue sourced from the MatTek Corporation (Ashland, Mass.). For simplicity the protocol below refers to both tissue types as RHE tissues and all media as assay medium as both tissues were treated in the same manner. The only exception was that two different types of media were required for the different types of tissue (healthy and psoriatic tissues). […]"}, "[3]": {"system": "Psoriatic tissues", "assay": "Tissue viability (MTT) of psoriatic tissue during 6 day treatment", "assay_type": "cell-based, human", "conditions": "for irritancy conclusion from tissue viability over 6 days: 6 day dosing period; for Psoriatic tissues as a percentage of untreated control (%): 10% w/v, n = 1", "text": "as §1\nIn this investigation two types of RHE tissues were used, which were healthy and psoriatic tissue sourced from the MatTek Corporation (Ashland, Mass.). For simplicity the protocol below refers to both tissue types as RHE tissues and all media as assay medium as both tissues were treated in the same manner. The only exception was that two different types of media were required for the different types of tissue (healthy and psoriatic tissues).\n• (i) At the end of the equilibration period, the media for each well was removed then the tissues were lifted and placed on culture stands and fresh pre-warmed (37° C.) assay medium (5 mL) was added to the well. • (ii) Using a positive displacement pipette, the test solutions 10% w/v, N-H-S(N-hydroxyserine) in water, […], N-H-G (N-hydroxyglycine) in water, 10% w/v, L-h-S (L-homoserine) in water and 10% w/v, combination 1:1:1 (N-H-S:N-H-G: L-h-S) in water were dispensed (50±0.5 μL) onto the top of the RHE tissue. The solutions or controls were then distributed over the surface of the RHE tissues using a sterile glass rod. • (iii) The lid was placed on the well plate containing the RHE tissue and the tissues were returned to the incubator (37° C., 5% CO2) 48 h between applications.\n• (i) Every 48 h culture media for the RHE tissues was removed from the 6 well plates and transferred into tubes stored (−20° C.) for cytokine analysis. • (ii) Fresh pre-warmed (37° C.) assay medium (5 mL) was added to each tissue using an automatic pipette. • (iii) From each treatment 1 tissue was removed for viability assessment. • (iv) The RHE tissues were subsequently rinsed with 100 μL of PBS to remove the residual solution from the epidermal surface. • (v) Using a positive displacement pipette, the solutions 10% w/v, N-H-S in water, 1% w/v, N-H-G in water, 10% w/v, L-h-S in water and 10% w/v, combination 1:1:1 (N-H-S:N-H-G:L-h-S) were dispensed (50±0.5 μL) onto the top of the RHE tissue. The solutions or controls were then distributed over the surface of the RHE tissues using a sterile glass rod. • (vi) The lid was placed on the well plate containing the RHE tissue and the tissues were returned to the incubator (37° C., 5% CO2) 48 h between applications at t=0, 48 and 96 h. […]"}}, "note": "Where “and” joins values, the source holds several entries; their conditions need not be identical. Equal entries are not always repeated.", "data": [{"compound": "N[C@@H](CCO)C(=O)O", "note": "[L-homoserine]", "values": [{"measurement": "DRH", "setting": "[1]", "value": "71.4% and 71.37%"}, {"measurement": "release of GM-CSF from psoriasis tissues compared to untreated psoriasis tissues", "setting": "[2]", "value": "reduced"}, {"measurement": "irritancy conclusion from tissue viability over 6 days", "setting": "[3]", "value": "non-irritants"}]}, {"compound": "O=C(O)[C@H](CO)NO", "note": "[N-hydroxyserine]", "values": [{"measurement": "DRH", "setting": "[1]", "value": 68.3, "unit": "%"}, {"measurement": "release of GM-CSF from psoriasis tissues compared to untreated psoriasis tissues", "setting": "[2]", "value": "reduced"}, {"measurement": "Psoriatic tissues as a percentage of untreated control (%)", "setting": "[3]; 2 days in treatments", "value": 94.0, "unit": "%"}, {"measurement": "Psoriatic tissues as a percentage of untreated control (%)", "setting": "[3]; 4 days in treatments", "value": 75.3, "unit": "%"}, {"measurement": "irritancy conclusion from tissue viability over 6 days", "setting": "[3]", "value": "non-irritant"}, {"measurement": "irritancy conclusion from tissue viability over 6 days", "setting": "[3]; listed as N-H-S", "value": "non-irritating"}, {"measurement": "Psoriatic tissues as a percentage of untreated control (%)", "setting": "[3]; 6 days in treatments", "value": 96.0, "unit": "%"}]}, {"compound": "O=C(O)CNO", "note": "[N-hydroxyglycine, N-Hydroxyglycine]", "values": [{"measurement": "DRH", "setting": "[1]", "value": 68.1, "unit": "%"}, {"measurement": "release of GM-CSF from psoriasis tissues compared to untreated psoriasis tissues", "setting": "[2]", "value": "reduced"}, {"measurement": "Psoriatic tissues as a percentage of untreated control (%)", "setting": "[3]; 2 days in treatments", "value": 87.1, "unit": "%"}, {"measurement": "Psoriatic tissues as a percentage of untreated control (%)", "setting": "[3]; 4 days in treatments", "value": 77.6, "unit": "%"}, {"measurement": "irritancy conclusion from tissue viability over 6 days", "setting": "[3]", "value": "non-irritants"}, {"measurement": "irritancy conclusion from tissue viability over 6 days", "setting": "[3]; listed as N-H-G", "value": "non-irritating"}, {"measurement": "Psoriatic tissues as a percentage of untreated control (%)", "setting": "[3]; 6 days in treatments", "value": 89.6, "unit": "%"}]}]}
